Test results: PubChem BioAssay (NCI)
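Exposure lasted 48 hours, with cells grown in 96-well plates and compounds tested at five concentrations. Definition used: TGI = concentration required for complete inhibition of growth.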

Columns and labels:
Assay in all cases: NCI-60 cell line screen, 48 h
SF-295 CNS = test system: SF-295 CNS
RPMI-8226 leukemia = test system: RPMI-8226 leukemia
LOX IMVI melanoma = test system: LOX IMVI melanoma
SK-MEL-5 melanoma = test system: SK-MEL-5 melanoma
SF-539 CNS = test system: SF-539 CNS
SR leukemia = test system: SR leukemia
SN12C renal = test system: SN12C renal
HCT-15 colon = test system: HCT-15 colon
HOP-92 NSCLC = test system: HOP-92 NSCLC
KM12 colon = test system: KM12 colon
MDA-MB-231 breast = test system: MDA-MB-231 breast
HOP-62 NSCLC = test system: HOP-62 NSCLC
NCI/ADR-RES ovarian = test system: NCI/ADR-RES ovarian
HCT-116 colon = test system: HCT-116 colon
NCI-H23 lung = test system: NCI-H23 lung
MDA-N = test system: MDA-N
MCF7 breast = test system: MCF7 breast
K-562 leukemia = test system: K-562 leukemia
SNB-75 CNS = test system: SNB-75 CNS
HS 578T breast = test system: HS 578T breast
786-0 renal = test system: 786-0 renal
SK-OV-3 ovarian = test system: SK-OV-3 ovarian
U251 CNS = test system: U251 CNS
SNB-19 CNS = test system: SNB-19 CNS
PC-3 prostate = test system: PC-3 prostate
OVCAR-4 ovarian = test system: OVCAR-4 ovarian
A549 NSCLC = test system: A549 NSCLC
OVCAR-8 ovarian = test system: OVCAR-8 ovarian
TK-10 renal = test system: TK-10 renal
OVCAR-3 ovarian = test system: OVCAR-3 ovarian
BT-549 breast = test system: BT-549 breast
ACHN renal = test system: ACHN renal
M14 melanoma = test system: M14 melanoma
UACC-62 melanoma = test system: UACC-62 melanoma
CAKI-1 renal = test system: CAKI-1 renal
CCRF-CEM leukemia = test system: CCRF-CEM leukemia
MDA-MB-435 = test system: MDA-MB-435
NCI-H522 lung = test system: NCI-H522 lung
MALME-3M melanoma = test system: MALME-3M melanoma
A498 renal = test system: A498 renal
IGROV1 ovarian = test system: IGROV1 ovarian
MOLT-4 leukemia = test system: MOLT-4 leukemia
SW-620 colon = test system: SW-620 colon
SK-MEL-28 melanoma = test system: SK-MEL-28 melanoma
UO-31 renal = test system: UO-31 renal
SF-268 CNS = test system: SF-268 CNS
RXF 393 renal = test system: RXF 393 renal
OVCAR-5 ovarian = test system: OVCAR-5 ovarian
SK-MEL-2 melanoma = test system: SK-MEL-2 melanoma
NCI-H226 lung = test system: NCI-H226 lung
UACC-257 melanoma = test system: UACC-257 melanoma
EKVX NSCLC = test system: EKVX NSCLC
COLO 205 colon = test system: COLO 205 colon
HT29 colon = test system: HT29 colon
HL-60(TB) leukemia = test system: HL-60(TB) leukemia
T-47D breast = test system: T-47D breast
DU-145 prostate = test system: DU-145 prostate
NCI-H460 lung = test system: NCI-H460 lung
HCC-2998 colon = test system: HCC-2998 colon

Measured: TGI

O=S(=O)(CCCCl)SCCCCl
> 66.6 µM: OVCAR-3 ovarian
65 µM: SF-268 CNS
38.5 µM: MOLT-4 leukemia
> 85.3 µM: NCI/ADR-RES ovarian
40.6 µM: LOX IMVI melanoma
78.3 µM: HOP-92 NSCLC
> 67.2 µM: MDA-MB-435
> 93.4 µM: SF-295 CNS
42.3 µM: SW-620 colon
> 76.2 µM: MDA-N
54.7 µM: HCT-15 colon
47.3 µM: M14 melanoma
> 94 µM: SNB-75 CNS
> 94.1 µM: SK-MEL-5 melanoma
> 67.5 µM: IGROV1 ovarian
57.8 µM: RXF 393 renal
> 69.3 µM: U251 CNS
64.1 µM: RPMI-8226 leukemia | SN12C renal
28.1 µM: BT-549 breast
24.5 µM: HL-60(TB) leukemia
32.6 µM: NCI-H522 lung
53.4 µM: SF-539 CNS
98.2 µM: T-47D breast
> 69.2 µM: COLO 205 colon
24.2 µM: OVCAR-4 ovarian
60.1 µM: SR leukemia
62.5 µM: HT29 colon
33.2 µM: 786-0 renal
18 µM: OVCAR-8 ovarian
> 83.8 µM: MALME-3M melanoma
> 94.3 µM: OVCAR-5 ovarian
69.4 µM: MDA-MB-231 breast
51.1 µM: HCT-116 colon
47.5 µM: K-562 leukemia
47.1 µM: CCRF-CEM leukemia
94.7 µM: HS 578T breast
52.5 µM: MCF7 breast
> 100 µM: all other assays above

O=C1C[C@H](CCC(=O)OCc2ccccc2)NC(=O)C[C@H](CCC(=O)OCc2ccccc2)NC(=O)C[C@H](CCC(=O)OCc2ccccc2)N1
25.4 µM: TK-10 renal
29 µM: SK-OV-3 ovarian
42.8 µM: SF-295 CNS
6.73 µM: SNB-75 CNS
18.8 µM: HOP-92 NSCLC
8.23 µM: RXF 393 renal
30.8 µM: A498 renal
78.3 µM: MDA-MB-231 breast
69.4 µM: ACHN renal
40.4 µM: SF-539 CNS
not listed: SF-268 CNS | HL-60(TB) leukemia
> 100 µM: all other assays above

C=CCC1C(=O)Nc2cccc3ncn(c23)C1=O (stereo unspecified)
not listed: LOX IMVI melanoma | TK-10 renal | NCI-H522 lung | HCC-2998 colon
> 100 µM: all other assays above
